Test results taken from patent US20220339135A1, “COMPOSITIONS AND METHODS FOR MODULATING AN INFLAMMATORY RESPONSE” (Enzychem Lifesciences Corporation, priority 2019, published 2022).
“Also recorded” adds a separate entry of the source.

Assays:
[1] = tested on: LPS-induced acute lung injury; assay: LPS-induced acute lung injury (ALI) in mice; format: in vivo; conditions: for number of neutrophils in BALF: LPS-treated mice, co-treatment
[2] = tested on: citrullinated histone H3 in dHL-60 cells; assay: Histone H3 citrullination, western blot; format: cell-based, human; conditions: time-dependent
Protocol: dHL-60 cells were lysed on ice for 30 minutes in RIPA buffer composed of 50 mM Tris-HCl (pH 7.4), 150 mM NaCl, 2 mM EDTA, 1% NP-40, 0.5% sodium deoxycholate, 0.1% SDS, 1 mM phenylmethylsulfonyl fluoride (PMSF), 10 mM sodium fluoride, 2 mM sodium pyrophosphate, 10 mM β-glycerophosphate, 10 mM sodium orthovanadate. The lysates were centrifuged at 13,000 rpm for 20 minutes at 4° C. and protein concentrations were determined using the Bradford assay (Bio-Rad Laboratories). Denatured samples were mixed with a 5×SDS-PAGE loading buffer and heated to 100° C. for 15 min. The samples were separated on the 10% of SDS-PAGE gel and transferred to polyvinylidene difluoride (PVDF) membranes (Merck Millipore Corporation, MA, USA). Membranes were blocked with 5% non-fat milk in PBS (10 mM Tris-HCl, pH7.5, 150 mM NaCl) for 1 h and probed with primary antibodies against histone H3 (citrulline R2+R8+R17) from abcam (USA) and β-actin from cell signaling (USA) for overnight at 4° C. The blots were washed and incubated with appropriate secondary antibodies and visualized using Pierce™ ECL Western Blotting Substrate (Thermo Scientific).

[3] = tested on: Pseudomonas aeruginosa (PAK) in BALF; assay: PAK infection of mice, CFU determination in BALF; format: in vivo; conditions: PAK-induced pneumonia mice, BALF 2 hours after infection
Protocol: Pseudomonas aeruginosa (PAK) was grown overnight in LB broth at 37° C. with agitation, and then harvested by centrifugation at 13,000×g for 2 min. The pellet was diluted to yield 1×10^5 colony-forming unit (CFU) per 20 μL of phosphate-buffered saline (PBS) as determined by the optical density at 600 nm. The diluted bacteria were administered to BALB/c mice by intranasal injections. Bronchoalveolar lavage fluid (BALF) samples were then collected 2 hours after infection and serially diluted 1:1,000-1:10,000 with PBS and incubated overnight at 37° C. on LB agar plates. The number of viable bacteria in BALF samples were determined by counting the numbers of colonies formed on the plates.

[4] = tested on: STZ-induced hepatic steatosis; assay: STZ-induced mice model (lipid uptake, hepatic steatosis); format: in vivo; conditions: for body weight versus STZ treated mice / hepatic steatosis / liver damage (histology): co-treated 3 days
Description: Eight-week-old Balb/c male mice were purchased from Koatech Co. (Pyeongtaek, Republic of Korea) and maintained in for 7 days in order to adapt to the environment. The experimental protocol was approved by the Animal Care and Use Committee of Korea Research Institute of Bioscience and Biotechnology Institution (KRIBB-AEC-17146) and performed in accordance with the National Institutes of Health Guidelines for the care and use of laboratory animals and with the Korean national laws for animal welfare. The mice were randomized initially into two experimental groups as follows: Non-treated group as a control; STZ treated group. STZ treated groups received an intraperitoneal injection of 200 mg/kg BW STZ, which was dissolved in citrate buffer (pH 4.5), while the animals belonging to the control group received vehicle injection. The next day following STZ administration, the induction of diabetes in all STZ-treated mice was confirmed the glucose level in blood by a glucometer (ACCU-CHEK, Roche diagnostics Inc., Seoul, Korea). All mice with blood glucose levels higher than 200 mg/dL in fasting state were considered acute diabetes. After the confirmation of the induction of diabetes, the mice of the experimental group were further randomized into three groups: STZ alone treated group; high dose of PLAG treated group; a low dose of PLAG treated group. PLAG was injected into mice for 3 days. Control and STZ alone treated groups were administrated orally to mice with the same PBS for 3 days. Following sacrifice, LPL activity was measured in plasma using a quantitative LPL activity assay kit (Cell Biolabs, Inc, San Diego, Calif.). Diluted samples and standards were loaded to the fluorescence microtiter plate, and LPL fluorometric substrate was added. After 30 minutes, the reaction stopped by stopping the solution. After 15 minutes, the sample fluorescence measured by a fluorescence microplate reader. The relative amounts of Apolipoprotein B48 (ApoB48) of portal vein plasma were evaluated by western blot analysis. […] The protein extracts were immunoblotted with the ApoB48 antibody (Abcam, MA, USA). Eight-week-old Balb/c male mice were purchased from Koatech Co. (Pyeongtaek, Republic of Korea) and maintained in for 7 days in order to adapt to the environment. The experimental protocol was approved by the Animal Care and Use Committee of Korea Research Institute of Bioscience and Biotechnology Institution (KRIBB-AEC-17146) and performed in accordance with the National Institutes of Health Guidelines for the care and use of laboratory animals and with the Korean national laws for animal welfare. The mice were randomized initially into 2 experimental groups as follows: Non-treated group as a control; STZ treated group. STZ treated groups received an intraperitoneal injection of 200 mg/kg BW STZ, which was dissolved in citrate buffer (pH 4.5), while the animals belonging to the control group received vehicle injection. The next day following STZ administration, the induction of diabetes in all STZ-treated mice was confirmed the glucose level in blood by a glucometer (ACCU-CHEK, Roche diagnostics Inc., Seoul, Korea). All mice with blood glucose levels higher than 200 mg/dL in fasting state were considered acute diabetes. After the confirmation of the induction of diabetes, the mice of the experimental group were further randomized into three groups: STZ alone treated group; high dose of PLAG treated group; a low dose of PLAG treated group. One day after STZ injection, mice were orally injected with PLAG for 3 days (FIG. 31A). The dosage and preparation of PLAG were determined according to previous reports. Control and STZ alone treated groups were administrated orally with the same PBS for 3 days. The experiments were carried out according to the methods mentioned above. […] Total RNA was isolated from the muscle of individual mice using TRIzol reagent (Favorgen Biotech, Taiwan). […]

SMILES	inflammatory cell infiltration into the alveolar space (H&E) ([1]; 16 hours after LPS, PLAG 250 mg/kg oral)	mRNA expression of MIP-2, S100A8, S100A9 increased by LPS ([1]; BALF cells, 16 hours)	Evans blue-stained albumin in lungs ([1]; LPS 25 mg/kg intranasal, PLAG 250 mg/kg oral)	number of neutrophils in BALF [1]	MPO activity of isolated lung tissue ([1]; vs LPS alone, PLAG 250 mg/kg oral)	neutrophil migration, PLAG treatment alone ([1]; without LPS)	histone H3 citrullination [2]	bacterial clearance of PAK in BALF [3]	STZ-induced empty fat vacuoles in liver (H&E) ([4]; 250 mg/kg vs 50 mg/kg)	plasma LPL activity ([4]; STZ 200 mg/kg, PLAG 3 days)	muscle TG content ([4]; STZ/PLAG treated group)	body weight versus STZ treated mice [4]	hepatic steatosis / liver damage (histology) [4]	ApoB48 level in portal vein blood ([4]; dose-dependent)
CCCCC/C=C\C/C=C\CCCCCCCC(=O)OC(COC(C)=O)COC(=O)CCCCCCCCCCCCCCC (racemic) [PLAG, 1-palmitoyl-2-linoleoyl-3-acetylglycerol]	considerably reduced	significantly attenuated	significantly decreased	more rapidly return to homeostasis; also recorded: dramatically reduced	significantly decreased	no effect	induced	showed the bacterial clearance activity; also recorded: effectively eliminated	decreased STZ-induced empty fat vacuoles more effectively than 50 mg/kg	recovered	recovered	less body weight loss	attenuated	markedly reduced
CCCCC/C=C\C/C=C\CCCCCCCC(=O)OC(CO)COC(=O)CCCCCCCCCCCCCCC (stereo not drawn) [PLH, palmitic linoleic hydroxyl glycerol, reference compound]	–	–	–	no effect	–	–	–	didn't; also recorded: did not	–	–	–	no difference	not altered	–
